Data set [1] concerns IP-10. Description: Cytokine production induced by sample formulations: IP-10. The format is in vivo. The settings on record: mice, i.v., 0.5 mpk, 6 hours; for IP-10: Table 20-4, formula (20-I), in pg/mL (unit assumed). In outline: (§1)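 Cytokine levels were quantified at 6 hours in mice given the nanoparticle compositions i.v. at 0.5 mpk. MC3 standard formulation and PBS served as comparators.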

Data set [2] relates to modified luciferase expression. Description: Expression of Luc in different organs (liver, lung, spleen, femur) 6 hours after intravenous administration. The format is in vivo. The settings on record: i.v., 0.5 mpk; for Total Flux Femur / Total Flux Liver / Total Flux Lung / Total Flux Spleen: Table 20-3, mice. The protocol:
The efficacy of the nanoparticle compositions presented in Tables 1, 1a, 17-1, 19-1, 20-1 and 21-1 was further evaluated by measuring the expression of modified luciferase in the liver, lung, spleen, and femur upon administration of a given composition. Formulations were administered intravenously to mice (n=3) at a dosage of 0.5 mpk and bioluminescence measured after 6 hours. The standard MC3 formulation and a PBS control were also tested.

A short description of data set [3]: Particle size and polydispersity index of nanoparticle compositions (Zetasizer Nano ZS). The format is physicochemical. The settings on record: for PDI / Size (nm): Table 20-1, rows without footnote mark; for particle size, rank within the named table (in words): comparison amongst compositions. In a few lines:
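Zetasizer Nano ZS; samples in 1×PBS; read-out: particle size plus polydispersity index.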

Data set [4] has as its system luciferase (Luc) mRNA expression. Description: Expression of Luc induced by sample formulations, whole-body bioluminescence after intravenous administration. The format is in vivo. The settings on record: mice, i.v., 0.5 mg/kg; for Total Flux 3 hours / Total Flux 6 hours / Total Flux 24 hours: Table 20-2. In outline: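 Read-out is whole-body bioluminescence at 3, 6 and 24 h after a single intravenous dose of 0.5 mg/kg Luc mRNA in nanoparticle formulations. Groups of n=6 mice; PBS and standard MC3 formulation as references.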

In data set [5] the test system is IL-6. Description: Cytokine production induced by sample formulations: IL-6. The format is in vivo. The settings on record: mice, i.v., 0.5 mpk, 6 hours; for IL-6: Table 20-4, formula (20-I), in pg/mL (unit assumed). In a few lines:
as §1

A short description of data set [6]: pKa of nanoparticle compositions. The format is physicochemical. The settings on record: Table 20-1; rows without footnote mark.
The nature of data set [7]: Encapsulation efficiency of RNA (QUANT-IT RIBOGREEN RNA assay). The format is physicochemical. The settings on record: Table 20-1; rows without footnote mark. In a few lines: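 RiboGreen fluorescence (ex ~480, em ~520 nm) measured after 15 min at 37 °C on samples at ~5 μg/mL in TE, pH 7.5, ± 2% Triton X-100 solution. After blank subtraction, free RNA is given as intact-sample signal divided by disrupted-sample signal.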

The record followed here is patent US10195156B2, “Compounds and compositions for intracellular delivery of agents” (ModernaTX, Inc., priority 2015, dated 2019).

In data set [1], `CCCCCCCOC(=O)CCCCCN(CCO)CCN(CCCCCC(=O)OCCCCCCC)CCCCCC(=O)OCCCCCCC` [Compound 20-5, Diheptyl 6,6′-((2-((6-(heptyloxy)-6-oxohexyl)(2hydroxyethyl)amino)ethyl)azanediyl)dihexanoate] came in with an IP-10 of 2012.3. Moreover, in data set [2], the “Total Flux Femur” value came out at 9.53E+04, the “Total Flux Lung” value came to 5.80E+04 and the “Total Flux Spleen” value is reported as 3.40E+06. In data set [2] (liver), the “Total Flux Liver” value amounted to 2.67E+06. Besides, in data set [3], the PDI stood at 0.210 and the “Size (nm)” value is 119.3 nm. The “Total Flux 3 hours” value in data set [4] (3 hours) stood at 6.07E+07. Further, in data set [4], the “Total Flux 6 hours” value was determined as 1.99E+07 and the “Total Flux 24 hours” value is on record as 2.07E+06. Further, the IL-6 in data set [5] was 140.8. Also, the pKa in data set [6] stood at 6.79. The “EE (%)” value in data set [7] is listed as 78.1%.

Consider `CCCCCCCCCCCCN(CCO)CCN(CCCCCCCCCCCC)CCCCCC(=O)OCCCCCCC` [Compound 20-7, Heptyl 6-(dodecyl(2-(dodecyl(2-hydroxyethyl)amino)ethyl)amino)hexanoate], for which, in data set [1], the IP-10 turned out to be 696.3. Moreover, the “Total Flux Liver” value in data set [2] (liver) was 1.00E+09. In data set [2], the “Total Flux Lung” value is 1.38E+07 and the “Total Flux Spleen” value worked out at 4.58E+07. Also, the “total flux in the liver, rank within the named table (in words)” value in data set [2] (mice, liver) is listed as “highest”. In data set [3], the PDI turned out to be 0.170 and the “Size (nm)” value was found to be 73.6 nm. In data set [4] (3 hours), the “Total Flux 3 hours” value is listed as 1.22E+10 and the “total flux after 3 hours, rank within the named table (in words)” value is given as “highest after 3 hours”. Moreover, in data set [4], the “Total Flux 6 hours” value is reported as 8.94E+09 and the “Total Flux 24 hours” value is 2.65E+08. The same compound registered an IL-6 in data set [5] of 24.5. In data set [6], this compound had a pKa of 6.66. In addition, the “EE (%)” value in data set [7] turned out to be 92.4%.

On to `CCCCCCCCCCCCN(CCCCCCCCCCCC)CCN(CCO)CCCCCCCC(=O)OCCCCCCCCC` [Compound 20-8, Nonyl 8-((2-(didodecylamino)ethyl)(2-hydroxyethyl)amino)octanoate], for which the IP-10 in data set [1] came to 134.0. Besides, in data set [2], the “Total Flux Femur” value came out at 1.62E+06, the “Total Flux Lung” value turned out to be 3.45E+06 and the “Total Flux Spleen” value is 2.70E+07. For the same compound, the “Total Flux Liver” value in data set [2] (liver) is listed as 8.09E+08. In data set [3], the PDI is given as 0.141; the “Size (nm)” value turned out to be 67.9 nm; the “particle size, rank within the named table (in words)” value (“particle size” below) is recorded as “smallest particles”. Also, in data set [4] (3 hours), the “Total Flux 3 hours” value is given as 2.76E+09. For the same compound, in data set [4], the “Total Flux 6 hours” value was 4.37E+09 and the “Total Flux 24 hours” value is listed as 1.30E+08. The compound further had an IL-6 in data set [5] of 18.4. The compound further gave a pKa in data set [6] of 6.43. The “EE (%)” value in data set [7] is 96.6%.

`CCCCCCCCCCCCN(CCCCCCCCCCCC)CCN(CCO)CCCCCCCC(=O)OC(CCCCCCCC)CCCCCCCC` [Compound 20-9, Heptadecan-9-yl 8-((2-(didodecylamino)ethyl)(2-hydroxyethyl)amino)octanoate] gave an IP-10 in data set [1] of 271.1. In addition, in data set [2], the “Total Flux Femur” value is given as 2.89E+05, the “Total Flux Lung” value is given as 1.30E+06 and the “Total Flux Spleen” value worked out at 5.11E+06. Further, in data set [2] (liver), the “Total Flux Liver” value is listed as 1.57E+08. Moreover, in data set [3], the PDI worked out at 0.130; the “Size (nm)” value is 64.5 nm; the “particle size” value is on record as “smallest particles”. Further, in data set [4] (3 hours), the “Total Flux 3 hours” value came to 3.65E+08. For the same compound, in data set [4], the “Total Flux 6 hours” value came out at 6.91E+08 and the “Total Flux 24 hours” value is recorded as 4.81E+07. The compound further had an IL-6 in data set [5] of 152.1. This compound also registered a pKa in data set [6] of 6.22. Also, the “EE (%)” value in data set [7] came out at 95.9%.

`CCCCCCCCCCCCN(CCO)CCN(CCCCCCCC(=O)OCCCCCCCCC)CCCCCCCC(=O)OCCCCCCCCC` [Compound 20-10, Dinonyl 8,8′-((2-(dodecyl(2-hydroxyethyl)amino)ethyl)azanediyl)dioctanoate]: the IP-10 in data set [1] amounted to 2356.8. In addition, in data set [2], the “Total Flux Femur” value was 3.09E+06, the “Total Flux Lung” value is 5.01E+06 and the “Total Flux Spleen” value is reported as 9.67E+07. Besides, the “Total Flux Liver” value in data set [2] (liver) was found to be 4.40E+08. In addition, in data set [3], the PDI was determined as 0.130 and the “Size (nm)” value is given as 85.7 nm. In data set [4] (3 hours), the “Total Flux 3 hours” value is 5.05E+09. Besides, in data set [4], the “Total Flux 6 hours” value is on record as 2.16E+09 and the “Total Flux 24 hours” value was found to be 2.54E+08. Further, in data set [5], the IL-6 stood at 739.0 and the “IL-6 induction, rank within the named table (in words)” value is listed as “highest”. This compound came in with a pKa in data set [6] of 6.42. The “EE (%)” value in data set [7] stood at 91.4%.

Consider `CCCCCCCCCCCCCCN(CCCCCCCCCCCCCC)CCN(CCCO)CCCCCCCCCCCC` [Compound 20-11, 3-((2-(Ditetradecylamino)ethyl)(dodecyl)amino)propan-1-ol], for which the IP-10 in data set [1] is recorded as 1700.5. Further, the “Total Flux Liver” value in data set [2] (liver) is 3.60E+08. For the same compound, in data set [2], the “Total Flux Lung” value worked out at 5.86E+05 and the “Total Flux Spleen” value was determined as 9.24E+06. In data set [3], the PDI was 0.118 and the “Size (nm)” value is given as 96.1 nm. In data set [4] (3 hours), the “Total Flux 3 hours” value came out at 1.44E+09. In data set [4], the “Total Flux 6 hours” value is reported as 8.83E+08 and the “Total Flux 24 hours” value is given as 2.40E+07. This compound returned an IL-6 in data set [5] of 46.9. Besides, in data set [6], the pKa is listed as 5.38. The “EE (%)” value in data set [7] is 97.5%.

Compound `CCCCCCCCCCCCCCN(CCO)CCN(CCCCCCCCCCCCCC)CCCCCCCCCCCCCC` [Compound 20-12, 2-((2-(Ditetradecylamino)ethyl)(tetradecyl)amino)ethan-1-ol] registered an IP-10 in data set [1] of 3864.5. Also, in data set [2], the “Total Flux Femur” value is given as 1.37E+06, the “Total Flux Lung” value amounted to 3.58E+06 and the “Total Flux Spleen” value is 6.15E+07. Further, the “Total Flux Liver” value in data set [2] (liver) was 3.08E+08. In data set [3], the PDI was 0.217; the “Size (nm)” value is reported as 147.1 nm; the “particle size” value is given as “largest particles”. In addition, the “Total Flux 3 hours” value in data set [4] (3 hours) was 1.57E+09. Further, in data set [4], the “Total Flux 6 hours” value is given as 1.84E+09 and the “Total Flux 24 hours” value was 1.24E+08. In addition, the IL-6 in data set [5] was determined as 445.7. This compound displayed a pKa in data set [6] of 6.58. Moreover, the “EE (%)” value in data set [7] came out at 82.3%.

Compound `CCCCC/C=C\C/C=C\CCCCCCCCN(CCCCCCCC/C=C\C/C=C\CCCCC)CCN(CCO)CCCCCCCCCCCC` [Compound 20-13, 2-((2-(Di((9Z,12Z)-octadeca-9,12-dien-1-yl)amino)ethyl)(dodecyl)amino)ethan-1-ol] showed an IP-10 in data set [1] of 70.0. Moreover, in data set [2], the “Total Flux Femur” value worked out at 3.11E+05, the “Total Flux Lung” value is reported as 9.09E+05 and the “Total Flux Spleen” value worked out at 1.04E+07. For the same compound, in data set [2] (liver), the “Total Flux Liver” value was 1.65E+08. For the same compound, in data set [3], the PDI is 0.057 and the “Size (nm)” value was 74.3 nm. In addition, the “Total Flux 3 hours” value in data set [4] (3 hours) is 7.01E+08. In data set [4], the “Total Flux 6 hours” value is reported as 1.82E+09 and the “Total Flux 24 hours” value stood at 7.39E+07. In data set [5], this compound displayed an IL-6 of 87.8. The compound also came in with a pKa in data set [6] of 5.83. For the same compound, the “EE (%)” value in data set [7] is recorded as 97.7%.

Turning to `CCCCC/C=C\C/C=C\CCCCCCCCN(CCO)CCN(CCCCCCCC/C=C\C/C=C\CCCCC)CCCCCCCC/C=C\C/C=C\CCCCC` [Compound 20-14, 2-((2-(Di((9Z,12Z)-octadeca-9,12-dien-1-yl)amino)ethyl)((9Z,12Z)-octadeca-9,12-dien-1-yl)amino)ethan-1-ol], in data set [1], the IP-10 was 8436.6 and the “IP-10 induction, rank or comparison with IL-6 (in words)” value is “highest”. The “Total Flux Liver” value in data set [2] (liver) is reported as 5.22E+07. In data set [2], the “Total Flux Lung” value came to 1.08E+05 and the “Total Flux Spleen” value was determined as 7.03E+05. Also, in data set [3], the PDI came out at 0.215 and the “Size (nm)” value worked out at 124.0 nm. Further, in data set [4] (3 hours), the “Total Flux 3 hours” value is on record as 1.76E+09. Besides, in data set [4], the “Total Flux 6 hours” value turned out to be 4.07E+08 and the “Total Flux 24 hours” value is reported as 8.10E+07. The same compound showed an IL-6 in data set [5] of 311.1. The pKa in data set [6] turned out to be 5.89. The “EE (%)” value in data set [7] was 94.5%.
